Reference: ChEMBL document CHEMBL1201862, “PubChem BioAssay data set” (2004)
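Tested at 5 concentrations; 48 h exposure; 96-well plates; endpoints linearly interpolated, else capped at highest concentration. Here, GI50 denotes the concentration required for 50% inhibition of growth.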 Active and inactive are the calls of the source. Cut-off read from the data, not from the text of the source: active = GI50 up to about 1.1 µM and inactive = higher.

Columns and labels:
Test in all cases: growth of human tumour cells (NCI), 48 h
A549 = test system: A549
CCRF-CEM = test system: CCRF-CEM
K562 = test system: K562
SNB-19 = test system: SNB-19
LOX IMVI = test system: LOX IMVI
A498 = test system: A498
M14 = test system: M14
SK-MEL-5 = test system: SK-MEL-5
NCI-H23 = test system: NCI-H23
NCI/ADR-RES = test system: NCI/ADR-RES
U-251 = test system: U-251
HCT-15 = test system: HCT-15
786-0 = test system: 786-0
Malme-3M = test system: Malme-3M
OVCAR-8 = test system: OVCAR-8
CAKI-1 = test system: CAKI-1
SR = test system: SR
Hs-578T = test system: Hs-578T
MDA-N = test system: MDA-N
HCT-116 = test system: HCT-116
SN12C = test system: SN12C
ACHN = test system: ACHN
MDA-MB-435 = test system: MDA-MB-435
DU-145 = test system: DU-145
UACC-257 = test system: UACC-257
HOP-92 = test system: HOP-92
OVCAR-5 = test system: OVCAR-5
MOLT-4 = test system: MOLT-4
T47D = test system: T47D
HCC 2998 = test system: HCC 2998
NCI-H226 = test system: NCI-H226
OVCAR-3 = test system: OVCAR-3
SF-268 = test system: SF-268
TK-10 = test system: TK-10
RXF 393 = test system: RXF 393
SK-MEL-28 = test system: SK-MEL-28
IGROV-1 = test system: IGROV-1
PC-3 = test system: PC-3
SK-OV-3 = test system: SK-OV-3
SW-620 = test system: SW-620
HOP-62 = test system: HOP-62
SF-539 = test system: SF-539
HL-60 = test system: HL-60
COLO 205 = test system: COLO 205
UO-31 = test system: UO-31
KM12 = test system: KM12
RPMI-8226 = test system: RPMI-8226
NCI-H522 = test system: NCI-H522
SNB-75 = test system: SNB-75
MDA-MB-231 = test system: MDA-MB-231
UACC-62 = test system: UACC-62
SF-295 = test system: SF-295
HT-29 = test system: HT-29
BT-549 = test system: BT-549
OVCAR-4 = test system: OVCAR-4
EKVX = test system: EKVX
NCI-H460 = test system: NCI-H460
SK-MEL-2 = test system: SK-MEL-2
MCF7 = test system: MCF7

COc1ccc2c(c1)C(=O)C1(C2)[C@H](c2ccccc2)C2C(=O)c3cc(OC)ccc3C2[C@H]1c1ccccc1 (some centres undefined)
GI50 (A549): > 100 µM (inactive)
GI50 (CCRF-CEM): 73.5 µM (inactive)
GI50 (K562): > 100 µM (inactive)
GI50 (SNB-19): > 100 µM (inactive)
GI50 (LOX IMVI): > 100 µM (inactive)
GI50 (A498): > 100 µM (inactive)
GI50 (M14): > 100 µM (inactive)
GI50 (SK-MEL-5): > 100 µM (inactive)
GI50 (NCI-H23): 15.1 µM (inactive)
GI50 (NCI/ADR-RES): > 100 µM (inactive)
GI50 (U-251): > 100 µM (inactive)
GI50 (HCT-15): > 100 µM
GI50 (786-0): > 100 µM (inactive)
GI50 (Malme-3M): > 100 µM (inactive)
GI50 (OVCAR-8): > 100 µM (inactive)
GI50 (CAKI-1): 1.75 µM (inactive)
GI50 (SR): > 100 µM (inactive)
GI50 (Hs-578T): 74.6 µM (inactive)
GI50 (MDA-N): > 100 µM (inactive)
GI50 (HCT-116): > 100 µM (inactive)
GI50 (SN12C): > 100 µM (inactive)
GI50 (ACHN): > 100 µM (inactive)
GI50 (MDA-MB-435): > 100 µM (inactive)
GI50 (DU-145): > 100 µM (inactive)
GI50 (UACC-257): > 100 µM (inactive)
GI50 (HOP-92): > 100 µM (inactive)
GI50 (OVCAR-5): > 100 µM (inactive)
GI50 (MOLT-4): > 100 µM (inactive)
GI50 (T47D): > 100 µM (inactive)
GI50 (HCC 2998): > 100 µM (inactive)
GI50 (NCI-H226): > 100 µM (inactive)
GI50 (OVCAR-3): > 100 µM (inactive)
GI50 (SF-268): > 100 µM (inactive)
GI50 (TK-10): > 100 µM (inactive)
GI50 (RXF 393): > 100 µM (inactive)
GI50 (SK-MEL-28): > 100 µM (inactive)
GI50 (IGROV-1): > 100 µM (inactive)
GI50 (PC-3): 16.6 µM (inactive)
GI50 (SK-OV-3): > 100 µM (inactive)
GI50 (SW-620): > 100 µM (inactive)
GI50 (HOP-62): > 100 µM (inactive)
GI50 (SF-539): > 100 µM (inactive)
GI50 (HL-60): 6.21 µM (inactive)
GI50 (COLO 205): > 100 µM (inactive)
GI50 (UO-31): > 100 µM (inactive)
GI50 (KM12): > 100 µM (inactive)
GI50 (RPMI-8226): 43.7 µM (inactive)
GI50 (NCI-H522): > 100 µM (inactive)
GI50 (SNB-75): 92.3 µM (inactive)
GI50 (MDA-MB-231): > 100 µM (inactive)
GI50 (UACC-62): > 100 µM (inactive)
GI50 (SF-295): > 100 µM (inactive)
GI50 (HT-29): > 100 µM (inactive)
GI50 (BT-549): > 100 µM (inactive)
GI50 (OVCAR-4): > 100 µM (inactive)
GI50 (EKVX): > 100 µM (inactive)
GI50 (NCI-H460): > 100 µM (inactive)

COC(=O)c1ccccc1/C=C1\Cc2c(C)cc(C)cc2C1=O
GI50 (A549): > 100 µM (inactive)
GI50 (CCRF-CEM): > 100 µM (inactive)
GI50 (K562): > 100 µM (inactive)
GI50 (SNB-19): > 100 µM (inactive)
GI50 (LOX IMVI): > 100 µM (inactive)
GI50 (A498): > 100 µM (inactive)
GI50 (M14): > 100 µM (inactive)
GI50 (SK-MEL-5): > 100 µM (inactive)
GI50 (U-251): > 100 µM (inactive)
GI50 (HCT-15): > 100 µM
GI50 (786-0): > 100 µM (inactive)
GI50 (Malme-3M): > 100 µM (inactive)
GI50 (OVCAR-8): > 100 µM (inactive)
GI50 (CAKI-1): > 100 µM (inactive)
GI50 (SR): > 100 µM (inactive)
GI50 (Hs-578T): > 100 µM (inactive)
GI50 (MDA-N): > 100 µM (inactive)
GI50 (HCT-116): > 100 µM (inactive)
GI50 (SN12C): > 100 µM (inactive)
GI50 (ACHN): > 100 µM (inactive)
GI50 (UACC-257): > 100 µM (inactive)
GI50 (HOP-92): > 100 µM (inactive)
GI50 (MOLT-4): > 100 µM (inactive)
GI50 (SK-MEL-2): > 100 µM (inactive)
GI50 (T47D): > 100 µM (inactive)
GI50 (HCC 2998): > 100 µM (inactive)
GI50 (NCI-H226): > 100 µM (inactive)
GI50 (OVCAR-3): > 100 µM (inactive)
GI50 (SF-268): > 100 µM (inactive)
GI50 (TK-10): > 100 µM (inactive)
GI50 (RXF 393): > 100 µM (inactive)
GI50 (SK-MEL-28): > 100 µM (inactive)
GI50 (IGROV-1): > 100 µM (inactive)
GI50 (PC-3): > 100 µM (inactive)
GI50 (SW-620): > 100 µM (inactive)
GI50 (HOP-62): > 100 µM (inactive)
GI50 (SF-539): > 100 µM (inactive)
GI50 (HL-60): > 100 µM (inactive)
GI50 (UO-31): > 100 µM (inactive)
GI50 (KM12): > 100 µM (inactive)
GI50 (RPMI-8226): > 100 µM (inactive)
GI50 (NCI-H522): > 100 µM (inactive)
GI50 (SNB-75): > 100 µM (inactive)
GI50 (MDA-MB-231): > 100 µM (inactive)
GI50 (UACC-62): > 100 µM (inactive)
GI50 (SF-295): > 100 µM (inactive)
GI50 (HT-29): > 100 µM (inactive)
GI50 (BT-549): > 100 µM (inactive)
GI50 (OVCAR-4): > 100 µM (inactive)
GI50 (MCF7): > 100 µM (inactive)
GI50 (EKVX): > 100 µM (inactive)
GI50 (NCI-H460): > 100 µM (inactive)
